Test results published in patent US4539149A, “β-Lactam antibacterial agents” (Beecham Group p.l.c., priority 1981, dated 1985).
Values after ≈ are worked out from the molar mass of the structure shown. Counter-ions that a name gives are not always drawn.

Test system: P. mirabilis 889
Experiment: MIC against P. mirabilis 889
Format: cell-based
[1] = Proteus mirabilis, 889, P. mirabilis 889

| MIC [1] [µg/mL] | SMILES | also measured |
| --- | --- | --- |
| 25 | CC1(C)S[C@H]2N(C(=O)[C@@]2(NC=O)NC(=O)C(C(=O)O)c2ccsc2)[C@H]1C(=O)O (stereo partly drawn) [Example 3, 6α-Formamido-6β-[2-carboxy-2-(3-thienyl)acetamido]penicillanic acid, di-sodium salt] | – |
| 100 | CC(=O)OCC1=C(C(=O)O)N2C(=O)[C@@](NC=O)(NC(=O)Cc3csc(N)n3)[C@H]2SC1 [Example 46, 7β-[2-(2-Aminothiazol-4-yl)acetamido]-7α-formamidocephalosporanic acid, trifluoroacetic acid salt] | – |
| 1 | CC(=O)OCC1=C(C(=O)O)N2C(=O)[C@@](NC=O)(NC(=O)[C@H](NC(=O)N3CCN(S(C)(=O)=O)C3=O)c3ccccc3)[C@H]2SC1 [Example 38, 7α-Formamido-7β-[D-2-[[3-(methylsulphonyl)-2-oxoimidazolidin-1-yl]carbonylamino]-2-phenylacetamido]cephalosporanic acid, sodium salt] | – |
| 0.25 | CCN1CCN(C(=O)N[C@H](C(=O)N[C@]2(NC=O)C(=O)N3C(C(=O)O)=C(COC(C)=O)CS[C@@H]32)c2cccs2)C(=O)C1=O [Example 45, 7β-[L-2-[(4-Ethyl-2,3-dioxopiperazin-1-yl)carbonylamino]-2-(thien-2-yl)acetamido]-7α-formamidocephalosporanic acid, sodium salt] | – |
| – | CCN1CCN(C(=O)NC(C(=O)NC2(NC=O)C(=O)N3C(C(=O)[O-])C(C)(C)SC32)c2ccc(O)c(O)c2)C(=O)C1=O.[Na+] (stereo not drawn) [Example 33, 6β-[2-[(4-Ethyl-2,3-dioxopiperazin-1-yl)carbonylamino]-2-(3,4-dihydroxyphenyl)acetamido]6α-formamidopenicillanic acid, sodium salt] | MIC against P. mirabilis 889 (P. mirabilis 889): 0.2 µg/mL |
| 50 | CC1(C)S[C@H]2N(C(=O)[C@@]2(NC=O)NC(=O)C(C(=O)O)c2ccccc2)[C@H]1C(=O)O (stereo partly drawn) [Example 2, 6α-Formamido-6β-(2-carboxy-2-phenylacetamido)penicillanic acid, di-sodium salt] | – |
| 0.5 | CC1(C)S[C@H]2N(C(=O)[C@@]2(NC=O)NC(=O)[C@H](NC(=O)N2CCN(S(C)(=O)=O)C2=O)c2ccccc2)[C@H]1C(=O)O [Example 12, 6α-Formamido-6β-[D-2-(3-methylsulphonyl-2-oxoimidazolidin-1-ylcarbonylamino)-2-penylacetamido]penicillanic acid, sodium salt] | – |
| – | CNC(=O)C[C@@H](N)C(=O)N[C@@H](C(=O)N[C@]1(NC=O)C(=O)N2[C@@H](C(=O)O)C(C)(C)S[C@@H]21)c1ccc(O)cc1 [Example 50, 6β-[D-2-[D-2-amino-3-(N-methylcarbamoyl)propionamido]-2-(4-hydroxyphenyl)acetamido]-6α-formamidopenicillanic acid, sodium salt] | MIC (Proteus mirabilis, 889): 1 µg/mL |
| 25 | CC(=O)OCC1=C(C(=O)O)N2C(=O)[C@@](NC=O)(NC(=O)CSCC#N)[C@H]2SC1 [Example 51, 7β-[2-(Cyanomethylthio)acetamido]-7α-formamidocephalosporanic acid, sodium salt] | – |
| 1 | CC1(C)S[C@H]2N(C(=O)[C@@]2(NC=O)NC(=O)[C@H](NC(=O)N2CCNC2=O)c2ccccc2)[C@H]1C(=O)O [Example 11, 6α-Formamido-6β-[D-2-(2-oxoimidazolidin-1-ylcarbonylamino)-2-phenylacetamido]penicillanic acid sodium salt] | – |
| 10 | CC(=O)OCC1=C(C(=O)O)N2C(=O)[C@@](NC=O)(NC(=O)Cc3cccs3)[C@H]2SC1 [Example 42, 7α-Formamido-7β-(thien-2-ylacetamido)cephalosporanic acid, sodium salt] | – |
| 10 | CCOC(=O)c1[nH]cnc1C(=O)N[C@@H](C(=O)N[C@]1(NC=O)C(=O)N2[C@@H](C(=O)O)C(C)(C)S[C@@H]21)c1ccc(O)cc1 [Example 25, 6β-[D-2-[(5-Ethoxycarbonylimadazol-4-yl)carbonylamino]-2-(4-hydroxyphenyl)acetamido]-6α-formamidopenicillanic acid, sodium salt] | – |
| 5 | Cc1ccc2c(O)c(C(=O)N[C@@H](C(=O)N[C@]3(NC=O)C(=O)N4[C@@H](C(=O)O)C(C)(C)S[C@@H]43)c3ccc(O)cc3)cnc2n1 [Example 49, 6α-Formamido-6β-[D-2-[(4-hydroxy-7-methyl-1,8-naphthyridin-3-yl)carbonylamino]-2-(4-hydroxyphenyl)acetamido]penicillanic acid, sodium salt] | – |
| 0.5 | CC1(C)S[C@H]2N(C(=O)[C@@]2(NC=O)NC(=O)[C@H](NC(=O)Nc2cnc(Nc3ccc(S(N)(=O)=O)cc3)nc2O)c2ccc(O)cc2)[C@H]1C(=O)O [Example 19, 6β-[D-2-[3-[2-(4-Aminosulphonylphenyl)amino-4-hydroxypyrimidin-5-yl]ureido]-2-(4-hydroxyphenyl)acetamido]-6α-formamidopenicillanic acid, disodium salt] | – |
| 25 | Cc1nnc(SCC2=C(C(=O)O)N3C(=O)[C@@](NC=O)(NC(=O)Cc4cccs4)[C@H]3SC2)s1 [Example 56, 7α-Formamido-7β-[2-(thien-2-yl)acetamido]-3-[(2-methyl-1,3,4-thiadiazol-5-yl)thiomethyl]ceph-3-em-4-carboxylate acid, sodium salt] | – |
| 10 | Cn1nnnc1SCC1=C(C(=O)O)N2C(=O)[C@@](NC=O)(NC(=O)Cc3cccs3)[C@H]2SC1 [Example 53, 7α-Formamido-7β-[2-(thien-2-yl)acetamido]-3-[(1-methyl-1H-tetrazol-5-yl)thiomethyl]ceph-3-em-4-carboxylic acid, sodium salt] | – |
| 50 | CC1(C)S[C@H]2N(C(=O)[C@@]2(NC=O)NC(=O)[C@H](NC(=O)c2cnc(NCc3ccccc3)nc2O)c2ccccc2)[C@H]1C(=O)O [Example 15, 6α-Formamido-6β-[D-2-(2-benzylamino-4-hydroxypyrimidin-5-ylcarboxamido)-2-phenylacetamido]penicillanic acid, disodium salt] | – |
| > 100 | CC1(C)S[C@H]2N(C(=O)[C@@]2(NC=O)NC(=O)[C@H](NC(=O)c2cnc3ncnn3c2O)c2ccccc2)[C@H]1C(=O)O [Example 14, 6α-Formamido-6β-[D-2-(7-hydroxy-1,2,4-triazolo[2,3-a]pyrimidin-6-ylcarboxamido)-2-phenylacetamido]penicillanic acid, disodium salt] | – |
| 25 (≈ 63.7 µM) | CC1(C)S[C@H]2N(C(=O)[C@@]2(NC=O)NC(=O)[C@H](N)c2ccccc2)[C@H]1C(=O)O [Example 8, 6α-Formamido-6β-(D-2-amino-2-phenylacetamido)penicillanic acid] | – |

| SMILES | MIC [1] [µg/mL] | also measured |
| --- | --- | --- |
| CCN1CCN(C(=O)NC(C(=O)N[C@]2(NC=O)C(=O)N3C(C(=O)O)=C(CSc4nnnn4C)CS[C@@H]32)c2ccc(OC(C)=O)c(OC(C)=O)c2)C(=O)C1=O (single isomer, unassigned) [Example 57 (isomer 2), 7β-[2-(3,4-Diacetoxyphenyl)-2-[(4-ethyl-2,3-dioxopiperazin-1-yl)carbonylamino]acetamido]-7α-formamido-3-[(1-methyl-1H-tetrazol-5-yl)thiomethyl]ceph-3-em-4-carboxylic acid, sodium salt, isomer 2] | 0.1 | – |
| CC(=O)Oc1ccc([C@@H](N)C(=O)N[C@]2(NC=O)C(=O)N3[C@@H](C(=O)O)C(C)(C)S[C@@H]32)cc1OC(C)=O [Example 64, 6β-[D-2-Amino-2-(3,4-diacetoxyphenyl)acetamido]-6α-formamido penicillanic acid] | 100 (≈ 197 µM) | – |
